Experimental data as given in article PMC10648944, “Fumagillin inhibits growth of the enteric protozoan parasite Entamoeba histolytica by covalently binding to and selectively inhibiting methionine aminopeptidase 2” (Antimicrobial Agents and Chemotherapy, 2023).

T1: E. histolytica methionine aminopeptidase 2 (EhMetAP2) (Entamoeba histolytica, UniProt C4LWW4)
T1 construct: gene EHI_126880; full-length, N-terminal GST fusion (GST-EhMetAP2) expressed in S. cerevisiae
T1 sequence (C4LWW4 1-413): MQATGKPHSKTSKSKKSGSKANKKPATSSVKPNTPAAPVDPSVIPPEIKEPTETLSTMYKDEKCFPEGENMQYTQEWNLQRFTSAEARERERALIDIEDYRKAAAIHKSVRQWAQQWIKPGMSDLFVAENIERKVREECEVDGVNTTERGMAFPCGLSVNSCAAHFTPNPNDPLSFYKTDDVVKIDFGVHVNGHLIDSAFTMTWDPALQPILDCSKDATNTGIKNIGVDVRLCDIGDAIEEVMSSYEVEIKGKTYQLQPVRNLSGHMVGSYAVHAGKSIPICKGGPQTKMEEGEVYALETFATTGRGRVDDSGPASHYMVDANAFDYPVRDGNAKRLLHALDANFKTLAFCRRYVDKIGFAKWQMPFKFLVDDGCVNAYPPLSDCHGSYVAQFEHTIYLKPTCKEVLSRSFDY

B1: E. histolytica methionine aminopeptidase 2 (EhMetAP2) (Entamoeba histolytica HM-1:IMSS) (protein)
chain: T1 sequence (C4LWW4 1-413)
notes: full-length, N-terminal GST fusion (GST-EhMetAP2) expressed in S. cerevisiae

Columns and labels:
[1] = biological target: T1, E. histolytica methionine aminopeptidase 2 (EhMetAP2); test: fluorogenic Met-MCA aminopeptidase assay with purified GST-EhMetAP2, double-reciprocal plot; type: biochemical
[2] = substrate: CSCC[C@H](N)C(=O)Nc1ccc2c(C)cc(=O)oc2c1; test: fluorometric hydrolysis by purified GST-EhMetAP2; Km by end point assay; type: biochemical, Entamoeba histolytica; settings: Mn2+ / Mg2+ ([…] MnCl2, […] MgCl2 in the assay)

| Molecule | Ki [1] | Km [2] |
| --- | --- | --- |
| CO[C@@H]1[C@H](OC(=O)/C=C/C=C/C=C/C=C/C(=O)O)CC[C@]2(CO2)[C@H]1[C@@]1(C)O[C@@H]1CC=C(C)C [compound 1, fumagillin] | 60 ± 33 nM | – |
| B1 | – | 770 ± 40 µM |
